Data: patent US20230000870A1, “METHODS OF TREATING CANCER IN BIOMARKER-IDENTIFIED PATIENTS WITH INHIBITORS OF CYCLIN-DEPENDENT KINASE 7 (CDK7)” (Syros Pharmaceuticals, Inc., priority 2019, published 2023)

Experiments:
CDK9/Cyclin T1 complex = CDK9/Cyclin T1 complex (Homo sapiens, UniProt P50750); test: CDK9 kinase inhibition assay (Caliper/LabChip EZ Reader); type: biochemical; conditions: CDK9/Cyclin T1 8 nM, ATP 2 mM, 15 min at 27° C.
In short: (§1)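 Incubation times were set for ~20% (±5%) peptide phosphorylation by uninhibited enzyme: CDK7 35 min, CDK2 35 min (0.5 nM complex, 2 μM 5-FAM-CDK7tide, 2 mM MgCl2), CDK12 3 hr (50 nM, 2 μM 5-FAM-CDK9tide, 2 mM MgCl2), CDK9 15 min (8 nM, 2 μM 5-FAM-CDK9tide, 10 mM MgCl2). Read-out on LabChip EZ Reader, 27° C.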

[1] = target: T1, CDK12 (aa686-1082)/Cyclin K complex (Homo sapiens, UniProt Q9NYV4); test: CDK12 kinase inhibition assay (Caliper/LabChip EZ Reader); type: biochemical; conditions: CDK12 (aa686-1082)/Cyclin K 50 nM, ATP 2 mM, 3 hr at 27° C.
T1 construct: CDK12 (aa686-1082)/Cyclin K complex
T1 sequence (Q9NYV4 686-1082): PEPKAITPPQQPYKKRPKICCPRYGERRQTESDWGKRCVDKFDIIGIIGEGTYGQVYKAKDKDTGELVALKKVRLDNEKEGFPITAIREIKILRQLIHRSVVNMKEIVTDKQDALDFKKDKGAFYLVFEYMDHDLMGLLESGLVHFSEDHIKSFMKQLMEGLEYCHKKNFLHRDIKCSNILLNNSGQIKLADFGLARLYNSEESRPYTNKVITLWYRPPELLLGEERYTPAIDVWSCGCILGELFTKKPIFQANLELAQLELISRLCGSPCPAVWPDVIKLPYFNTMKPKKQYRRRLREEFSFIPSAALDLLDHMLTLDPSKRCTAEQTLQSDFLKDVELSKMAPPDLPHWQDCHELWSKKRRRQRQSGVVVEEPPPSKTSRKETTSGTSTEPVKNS
T1 sequence (O75909 whole entry partner, the tested form may be a part): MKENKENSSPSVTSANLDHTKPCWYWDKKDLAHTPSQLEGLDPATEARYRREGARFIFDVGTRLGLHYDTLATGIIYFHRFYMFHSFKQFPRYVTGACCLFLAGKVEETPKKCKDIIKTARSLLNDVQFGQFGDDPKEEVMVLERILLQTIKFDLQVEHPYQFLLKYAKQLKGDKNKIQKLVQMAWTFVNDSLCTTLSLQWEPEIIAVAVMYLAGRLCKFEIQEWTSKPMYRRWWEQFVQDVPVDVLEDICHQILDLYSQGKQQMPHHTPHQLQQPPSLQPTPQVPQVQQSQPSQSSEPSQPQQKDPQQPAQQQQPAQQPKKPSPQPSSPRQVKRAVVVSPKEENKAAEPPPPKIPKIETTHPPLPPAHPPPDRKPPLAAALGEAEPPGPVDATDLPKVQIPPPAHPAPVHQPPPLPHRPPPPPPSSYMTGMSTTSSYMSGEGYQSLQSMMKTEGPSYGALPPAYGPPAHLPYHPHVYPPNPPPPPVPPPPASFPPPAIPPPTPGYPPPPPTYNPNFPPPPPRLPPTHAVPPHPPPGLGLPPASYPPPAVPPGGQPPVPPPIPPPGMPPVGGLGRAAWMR
In short: as §1

A673 cells = test: Inhibition of proliferation of A673 cells (CyQUANT, 72 hour); type: cell-based, human; conditions: read-out: Inhibition of Proliferation of A673 Cells (calculated IC50)
In short: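 Read-out is CyQUANT after a 72 h proliferation period, following the kit protocol. Dilution series in 0.5-log steps over the stated 4 μM to […] range. Cells are A673 (human Ewing's sarcoma), grown in DMEM with 10% FBS and 1 mM sodium pyruvate at 37 °C under 5% CO2.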

[2] = target: CDK7/Cyclin H/MAT1 complex (Homo sapiens, UniProt P50613); test: CDK7 kinase inhibition assay (Caliper/LabChip EZ Reader); type: biochemical; conditions: CDK7/Cyclin H/MAT1 6 nM, ATP 2 mM, 35 min at 27° C.
Chain of CDK7/Cyclin H/MAT1 complex (P50613 whole entry): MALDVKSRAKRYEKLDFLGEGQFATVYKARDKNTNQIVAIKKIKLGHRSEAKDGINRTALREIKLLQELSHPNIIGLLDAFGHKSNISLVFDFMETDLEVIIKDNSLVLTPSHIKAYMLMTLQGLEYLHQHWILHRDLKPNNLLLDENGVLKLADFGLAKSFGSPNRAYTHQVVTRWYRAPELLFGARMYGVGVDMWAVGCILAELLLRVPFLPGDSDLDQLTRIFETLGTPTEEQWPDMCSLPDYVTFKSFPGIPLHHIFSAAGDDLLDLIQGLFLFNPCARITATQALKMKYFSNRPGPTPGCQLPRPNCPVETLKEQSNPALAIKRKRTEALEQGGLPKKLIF
Chain of CDK7/Cyclin H/MAT1 complex (P51946 whole entry partner): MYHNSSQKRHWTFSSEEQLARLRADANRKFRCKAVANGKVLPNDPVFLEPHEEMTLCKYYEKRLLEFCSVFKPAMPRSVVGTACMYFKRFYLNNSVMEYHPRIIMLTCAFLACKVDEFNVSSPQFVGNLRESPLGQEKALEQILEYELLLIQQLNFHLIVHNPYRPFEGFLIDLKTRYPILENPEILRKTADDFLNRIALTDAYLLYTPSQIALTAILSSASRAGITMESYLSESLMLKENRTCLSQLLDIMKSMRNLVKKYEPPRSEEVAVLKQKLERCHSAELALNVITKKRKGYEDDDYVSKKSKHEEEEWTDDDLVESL
Chain of CDK7/Cyclin H/MAT1 complex (P51948 whole entry partner): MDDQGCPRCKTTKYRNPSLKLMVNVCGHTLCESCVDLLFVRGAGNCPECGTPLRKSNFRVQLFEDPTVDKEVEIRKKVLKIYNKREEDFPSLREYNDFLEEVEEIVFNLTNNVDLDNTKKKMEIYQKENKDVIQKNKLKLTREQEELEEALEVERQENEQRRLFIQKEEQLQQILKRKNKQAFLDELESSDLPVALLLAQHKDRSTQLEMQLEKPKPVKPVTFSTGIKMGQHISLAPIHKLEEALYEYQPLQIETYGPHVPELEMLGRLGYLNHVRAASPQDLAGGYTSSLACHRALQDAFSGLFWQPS
In short: as §1

CDK2/Cyclin E1 complex = CDK2/Cyclin E1 complex (Homo sapiens, UniProt P24941); test: CDK2 kinase inhibition assay (Caliper/LabChip EZ Reader); type: biochemical; conditions: CDK2/Cyclin E1 0.5 nM, ATP 2 mM, 35 min at 27° C.
In short: as §1

Chain of CDK9/Cyclin T1 complex (P50750 whole entry): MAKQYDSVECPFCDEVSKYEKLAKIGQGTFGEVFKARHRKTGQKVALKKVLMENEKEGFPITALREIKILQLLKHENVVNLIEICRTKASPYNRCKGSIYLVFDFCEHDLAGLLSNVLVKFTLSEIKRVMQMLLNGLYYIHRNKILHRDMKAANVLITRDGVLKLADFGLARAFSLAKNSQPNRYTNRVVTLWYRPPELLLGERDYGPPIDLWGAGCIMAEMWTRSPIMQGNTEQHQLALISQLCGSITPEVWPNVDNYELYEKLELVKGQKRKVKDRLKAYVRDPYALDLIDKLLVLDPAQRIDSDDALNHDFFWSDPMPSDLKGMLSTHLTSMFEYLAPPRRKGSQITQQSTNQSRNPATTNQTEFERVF
Chain of CDK9/Cyclin T1 complex (O60563 whole entry partner): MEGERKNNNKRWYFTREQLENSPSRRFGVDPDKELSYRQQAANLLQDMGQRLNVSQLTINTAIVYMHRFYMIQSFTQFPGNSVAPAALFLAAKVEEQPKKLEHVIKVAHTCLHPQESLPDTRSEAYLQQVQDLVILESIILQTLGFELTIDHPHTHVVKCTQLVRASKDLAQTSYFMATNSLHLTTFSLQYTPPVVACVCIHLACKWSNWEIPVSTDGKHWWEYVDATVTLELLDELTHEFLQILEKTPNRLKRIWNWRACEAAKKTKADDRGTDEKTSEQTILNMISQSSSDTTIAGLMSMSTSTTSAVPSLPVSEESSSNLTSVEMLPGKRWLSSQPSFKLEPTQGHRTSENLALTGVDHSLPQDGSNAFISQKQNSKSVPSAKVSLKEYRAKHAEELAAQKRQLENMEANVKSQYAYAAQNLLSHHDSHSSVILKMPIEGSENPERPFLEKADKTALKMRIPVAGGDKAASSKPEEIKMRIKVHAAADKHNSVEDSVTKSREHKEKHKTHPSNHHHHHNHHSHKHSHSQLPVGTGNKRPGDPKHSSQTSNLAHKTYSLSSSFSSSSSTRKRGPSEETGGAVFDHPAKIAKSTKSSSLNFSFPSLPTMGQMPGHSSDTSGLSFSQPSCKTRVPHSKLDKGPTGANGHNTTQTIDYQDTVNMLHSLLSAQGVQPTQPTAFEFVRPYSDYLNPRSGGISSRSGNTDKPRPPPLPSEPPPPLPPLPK

Row | IC50 (CDK9/Cyclin T1 complex) | IC50 [1] | IC50 [2] | IC50 (CDK2/Cyclin E1 complex) | SMILES | IC50 (A673 cells)
1 | ≥ 5 µM | 0.2 to 5 µM | < 0.02 µM | ≥ 5 µM | O=C(c1ccc2c(-c3nc(N[C@H]4CCCNC4)ncc3C(F)(F)F)c[nH]c2c1)N1CC[C@@H](O)C1 [Compound 205] | 0.2 to 5 µM
2 | 0.2 to 5 µM | 0.2 to 5 µM | 0.02 to 0.2 µM | 0.2 to 5 µM | CCC1CCC(Nc2ncc(C(F)(F)F)c(-c3c[nH]c4ccccc34)n2)CN1 (centres unmarked) [Compound 211] | 0.02 to 0.2 µM
3 | 0.2 to 5 µM | 0.02 to 0.2 µM | < 0.02 µM | 0.2 to 5 µM | Cc1cccc2c(-c3nc(NC4CCCNC4)ncc3C(F)(F)F)c[nH]c12 (centres unmarked) [Compound 124] | < 0.02 µM
4 | 0.2 to 5 µM | 0.2 to 5 µM | < 0.02 µM | 0.2 to 5 µM | CCc1cnc(NC2CCCNC2)nc1-c1n[nH]c2cc(C#N)ccc12 (centres unmarked) [Compound 275] | 0.02 to 0.2 µM
5 | 0.2 to 5 µM | 0.2 to 5 µM | 0.02 to 0.2 µM | 0.2 to 5 µM | Clc1cnc(N[C@H]2CCCNC2)nc1-c1c[nH]c2c(N3CCOCC3)cccc12 [Compound 150] | 0.02 to 0.2 µM
6 | 0.2 to 5 µM | 0.2 to 5 µM | < 0.02 µM | 0.2 to 5 µM | FC(F)(F)c1cnc(NC2CCCNC2)nc1-c1c[nH]c2cc(-c3cn[nH]c3)ccc12 (centres unmarked) [Compound 188] | 0.02 to 0.2 µM
7 | 0.2 to 5 µM | 0.2 to 5 µM | < 0.02 µM | 0.2 to 5 µM | CNS(=O)(=O)c1ccc2c(-c3nc(N[C@H]4CCCNC4)ncc3C(F)(F)F)c[nH]c2c1 [Compound 200] | 0.02 to 0.2 µM
8 | 0.2 to 5 µM | 0.2 to 5 µM | < 0.02 µM | 0.2 to 5 µM | O=C(C1CCC(Nc2ncc(C(F)(F)F)c(-c3c[nH]c4ccccc34)n2)CN1)N1CCCC1 (centres unmarked) [Compound 228] | 0.02 to 0.2 µM
9 | 0.2 to 5 µM | 0.2 to 5 µM | < 0.02 µM | 0.2 to 5 µM | FC(F)(F)c1cnc(N[C@H]2CCCNC2)nc1-c1c[nH]c2cc(-c3ccncc3)ccc12 [Compound 224] | 0.02 to 0.2 µM
10 | 0.2 to 5 µM | 0.2 to 5 µM | < 0.02 µM | 0.2 to 5 µM | CC(C)(O)CCc1cccc2c(-c3nc(NC4CCCNC4)ncc3C(F)(F)F)c[nH]c12 (centres unmarked) [Compound 191] | < 0.02 µM
11 | 0.2 to 5 µM | 0.2 to 5 µM | < 0.02 µM | 0.2 to 5 µM | FC1(F)CNC[C@@H](Nc2ncc(C(F)(F)F)c(-c3c[nH]c4ccccc34)n2)C1 [Compound 236] | 0.02 to 0.2 µM
12 | 0.2 to 5 µM | ≥ 5 µM | 0.02 to 0.2 µM | 0.2 to 5 µM | CCOP(=O)(OCC)c1ccc2[nH]cc(-c3nc(NC4CCCNC4)ncc3C(F)(F)F)c2c1 (centres unmarked) [Compound 183] | 0.2 to 5 µM
13 | ≥ 5 µM | 0.2 to 5 µM | 0.02 to 0.2 µM | ≥ 5 µM | CC(=O)c1cnc(NC2CCCNC2)nc1-c1c[nH]c2ccccc12 (centres unmarked) [Compound 208] | 0.02 to 0.2 µM
14 | 0.2 to 5 µM | ≥ 5 µM | 0.2 to 5 µM | ≥ 5 µM | Clc1cnc(NC2CCCNC2)nc1-c1cn(-c2ccccc2)c2ccccc12 (centres unmarked) [Compound 132] | 0.2 to 5 µM
15 | 0.2 to 5 µM | 0.2 to 5 µM | < 0.02 µM | 0.2 to 5 µM | Cn1cc(-c2ccc3c(-c4nc(NC5CCCNC5)ncc4C(F)(F)F)c[nH]c3c2)cc1C#N (centres unmarked) [Compound 225] | 0.02 to 0.2 µM
16 | 0.2 to 5 µM | 0.2 to 5 µM | 0.02 to 0.2 µM | 0.2 to 5 µM | Cc1cccc2c(-c3nc(NC4CCCNC4)ncc3F)c[nH]c12 (centres unmarked) [Compound 138] | 0.2 to 5 µM

Row | IC50 (CDK9/Cyclin T1 complex) | IC50 [1] | IC50 [2] | IC50 (CDK2/Cyclin E1 complex) | SMILES | IC50 (A673 cells)
17 | ≥ 5 µM | ≥ 5 µM | ≥ 5 µM | ≥ 5 µM | Clc1cnc(NC2CNCCC2c2ccccc2)nc1-c1c[nH]c2ccccc12 (centres unmarked) [Compound 116] | 0.2 to 5 µM
18 | ≥ 5 µM | 0.2 to 5 µM | < 0.02 µM | 0.2 to 5 µM | Cc1nc(-c2ccc3c(-c4nc(NC5CCCNC5)ncc4C(F)(F)F)c[nH]c3c2)nn1C (centres unmarked) [Compound 245] | 0.02 to 0.2 µM
19 | 0.2 to 5 µM | 0.2 to 5 µM | 0.02 to 0.2 µM | 0.2 to 5 µM | CC1NCCCC1Nc1ncc(Cl)c(-c2c[nH]c3ccccc23)n1 (centres unmarked) [Compound 114] | 0.02 to 0.2 µM
20 | 0.2 to 5 µM | 0.2 to 5 µM | < 0.02 µM | 0.2 to 5 µM | FC(F)(F)c1cnc(NC2CCCNC2)nc1-c1c[nH]c2cc(-c3cccnc3)ccc12 (centres unmarked) [Compound 223] | 0.02 to 0.2 µM
21 | 0.2 to 5 µM | 0.2 to 5 µM | < 0.02 µM | 0.2 to 5 µM | CCc1cnc(N[C@H]2CCCNC2)nc1-c1c[nH]c2c(C)cccc12 [Compound 137] | 0.02 to 0.2 µM
22 | 0.2 to 5 µM | 0.2 to 5 µM | < 0.02 µM | 0.2 to 5 µM | N#Cc1ccc2c(-c3nc(NC4CCCNC4)ncc3C(F)(F)F)c[nH]c2c1C#N (centres unmarked) [Compound 258] | 0.02 to 0.2 µM
23 | 0.2 to 5 µM | 0.2 to 5 µM | < 0.02 µM | 0.2 to 5 µM | OC1CNCC(Nc2ncc(C(F)(F)F)c(-c3c[nH]c4ccccc34)n2)C1 (centres unmarked) [Compound 203] | < 0.02 µM
24 | 0.2 to 5 µM | 0.2 to 5 µM | < 0.02 µM | 0.2 to 5 µM | Fc1cc2[nH]nc(-c3nc(NC4CCCNC4)ncc3C(F)(F)F)c2cc1F (centres unmarked) [Compound 152] | < 0.02 µM
25 | 0.02 to 0.2 µM | 0.02 to 0.2 µM | < 0.02 µM | 0.2 to 5 µM | FC(F)(F)c1cnc(NC2CCCNC2)nc1-c1c[nH]c2ccccc12 (centres unmarked) [Compound 102] | < 0.02 µM
26 | ≥ 5 µM | ≥ 5 µM | 0.2 to 5 µM | ≥ 5 µM | C#Cc1cnc(N[C@H]2CCCNC2)nc1-c1cn(C)c2ccccc12 [Compound 195] | 0.02 to 0.2 µM
27 | ≥ 5 µM | 0.2 to 5 µM | 0.02 to 0.2 µM | ≥ 5 µM | Cn1cc(-c2ccc3[nH]cc(-c4nc(NC5CCCNC5)ncc4C(F)(F)F)c3c2)cn1 (centres unmarked) [Compound 178] | 0.2 to 5 µM
28 | ≥ 5 µM | 0.2 to 5 µM | 0.02 to 0.2 µM | ≥ 5 µM | FC(F)(F)c1cnc(NC2CCCNC2)nc1-c1c[nH]c2cc(N3CCCC3)ccc12 (centres unmarked) [Compound 213] | 0.02 to 0.2 µM
29 | 0.2 to 5 µM | 0.2 to 5 µM | < 0.02 µM | 0.2 to 5 µM | FC(F)(F)c1cnc(N[C@H]2CCCNC2)nc1-c1c[nH]c2ccc(Cl)cc12 [Compound 160] | < 0.02 µM
30 | ≥ 5 µM | 0.2 to 5 µM | 0.02 to 0.2 µM | ≥ 5 µM | CCc1cnc(NC2CCCNC2)nc1-c1c[nH]c2ccccc12 (centres unmarked) [Compound 105] | 0.02 to 0.2 µM
31 | ≥ 5 µM | 0.2 to 5 µM | 0.02 to 0.2 µM | ≥ 5 µM | FC(F)(F)c1cnc(NC2CCCNC2)nc1-c1c[nH]c2ccc(-c3cn[nH]c3)cc12 (centres unmarked) [Compound 177] | 0.2 to 5 µM
